Consider 43 compounds from US9656971B2, “COMT inhibitors” (Hoffmann-La Roche Inc., priority 2012, dated 2017).

For this experiment, the target named is T1, Rec. human COMT (Homo sapiens, UniProt P21964).
T1 sequence (P21964 1-271): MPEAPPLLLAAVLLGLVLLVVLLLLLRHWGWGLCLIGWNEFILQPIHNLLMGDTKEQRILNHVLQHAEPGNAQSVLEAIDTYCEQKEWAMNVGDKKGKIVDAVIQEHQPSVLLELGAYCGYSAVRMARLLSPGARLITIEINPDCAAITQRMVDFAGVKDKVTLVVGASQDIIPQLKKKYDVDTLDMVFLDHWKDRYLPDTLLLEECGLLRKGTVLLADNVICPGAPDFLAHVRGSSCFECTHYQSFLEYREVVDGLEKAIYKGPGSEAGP
The experiment in a line: COMT-Fluorescence Assay. It is filed as biochemical. Particulars: rec. human COMT 25 nM, 4-Nitrocatechol-Alexa488 200 nM, SAM 500 nM. The procedure:
This intramolecular interaction is disturbed if the 4-Nitrocatechol is methylated. […] This increase of fluorescence intensity can be followed in a kinetic measurement. The slope in the linear range of the kinetic is calculated. An inhibitor compound decreases the slope.
Signal [rfu/min]=(rfu(end-point)−rfu(startpoint))/incubation_time_#2

[1] abbreviates: COMT-fluorescence assay, read-out: IC50.

Molecules are shown by their SMILES. Where two headings read alike, the source gives them in different places.

By IC50 is commonly meant the concentration that inhibits the measured activity by half. In the case of `O=c1[nH]cnc2c(O)cc(-c3cccc4ccccc34)cc12` [Example 170, 8-Hydroxy-6-(naphthalen-1-yl)quinazolin-4(3H)-one], the IC50 under setting [1] came to 0.02 µM.

In the case of `O=c1[nH]cnc2c(O)cc(-c3ccc(F)cc3)c(F)c12` [Example 195, 5-Fluoro-6-(4-fluorophenyl)-8-hydroxyquinazolin-4(3H)-one], under setting [1], the IC50 came to 0.01 µM.

Consider `O=c1[nH]cnc2c(O)cc(C3=Cc4ccccc4CC3)cc12` [Example 7, 6-(3,4-Dihydro-naphthalen-2-yl)-8-hydroxy-3H-quinazolin-4-one], for which the 50% inhibitory concentration (IC50) under setting [1] amounted to 0.01 µM.

For `Cc1cnccc1-c1cc(O)c2nc[nH]c(=O)c2c1` [Example 219, 8-Hydroxy-6-(3-methylpyridin-4-yl)quinazolin-4(3H)-one], under setting [1], the IC50 is 0.02 µM.

For the compound `O=c1[nH]cnc2c(O)cc(-c3cccc4cccnc34)cc12` [Example 167, 8-Hydroxy-6-(quinolin-8-yl)quinazolin-4(3H)-one], the IC50 under setting [1] was determined as 0.26 µM.

In the case of `Cc1nc(-c2cc(O)c3nc[nH]c(=O)c3c2)cs1` [Example 85, 8-Hydroxy-6-(2-methylthiazol-4-yl)quinazolin-4(3H)-one], under setting [1], the IC50 amounted to 0.17 µM.

On to `O=c1[nH]cnc2c(O)cc(-c3ccccc3)cc12` [Example 128, 8-Hydroxy-6-phenylquinazolin-4(3H)-one], for which the IC50 under setting [1] was determined as 0.02 µM.

As to `O=c1[nH]cnc2c(O)cc(-c3ccccc3COCCN3CCN(CC(F)(F)F)CC3)cc12` [Example 121, 8-Hydroxy-6-(2-((2-(4-(2,2,2-trifluoroethyl)piperazin-1-yl)ethoxy)methyl)phenyl)quinazolin-4(3H)-one 2,2,2-trifluoroacetate], the IC50 under setting [1] was determined as 0.03 µM.

`O=c1[nH]cnc2c(O)cc(-c3ccc(F)cc3)cc12` [Example 125, 6-(4-Fluorophenyl)-8-hydroxyquinazolin-4(3H)-one]: the IC50 under setting [1] is 0.02 µM.

For `COCc1ccccc1-c1cc(O)c2nc[nH]c(=O)c2c1` [Example 220, 8-Hydroxy-6-(2-(methoxymethyl)phenyl)quinazolin-4(3H)-one], the IC50 under setting [1] is 0.02 µM.

For `O=c1[nH]cnc2c(O)cc(/C=C/c3ccccc3)cc12` [Example 20, (E)-8-Hydroxy-6-styrylquinazolin-4(3H)-one], under setting [1], the IC50 amounted to 0.09 µM.

On to `O=c1[nH]cnc2c(O)c(F)c(Br)c(-c3ccc(F)cc3)c12` [Example 244, 6-Bromo-7-fluoro-5-(4-fluoro-phenyl)-8-hydroxy-3H-quinazolin-4-one], for which the IC50 under setting [1] worked out at 0.15 µM.

In the case of `O=c1[nH]cnc2c(O)cc(-c3ccc(F)c(F)c3F)cc12` [Example 31, 8-Hydroxy-6-(2,3,4-trifluoro-phenyl)-3H-quinazolin-4-one], under setting [1], the IC50 turned out to be 0.02 µM.

Consider `O=C(c1cc(O)c2nc[nH]c(=O)c2c1)N1CCOCC1` [Example 3, 8-Hydroxy-6-(morpholine-4-carbonyl)quinazolin-4(3H)-one], for which, under setting [1], the IC50 came to 4.21 µM.

Take `O=C(c1cccc(-c2cc(O)c3nc[nH]c(=O)c3c2)c1)N1CCOCC1` [Example 175, 8-Hydroxy-6-(3-(morpholine-4-carbonyl)phenyl)quinazolin-4(3H)-one]: under setting [1], the IC50 amounted to 0.02 µM.

With `O=c1[nH]cnc2c(O)cc(-c3ccccc3COCCN3CCCC3)cc12` [Example 239, 8-Hydroxy-6-[2-(2-pyrrolidin-1-yl-ethoxymethyl)-phenyl]-3H-quinazolin-4-one; compound with trifluoro-acetic acid], the IC50 under setting [1] came out at 0.05 µM.

For the compound `CN1CC=C(c2c(-c3ccc(F)cc3)cc(O)c3nc[nH]c(=O)c23)CC1` [Example 61, 6-(4-Fluorophenyl)-8-hydroxy-5-(1-methyl-1,2,3,6-tetrahydropyridin-4-yl)quinazolin-4(3H)-one], the IC50 (IC50, COMT-fluorescence assay) came out at 0.13 µM.

Regarding `Cc1ccc(-c2cc(O)c3nc[nH]c(=O)c3c2)cn1` [Example 166, 8-Hydroxy-6-(6-methylpyridin-3-yl)quinazolin-4(3H)-one], the IC50 under setting [1] is 0.06 µM.

`Cc1ccc(-c2c(-c3ccc(F)cc3)c(Br)c(O)c3nc[nH]c(=O)c23)cc1` [Example 51, 7-bromo-6-(4-fluorophenyl)-8-hydroxy-5-p-tolylquinazolin-4(3H)-one]: under setting [1], the IC50 came to 0.26 µM.

Consider `O=C(c1ccncc1)c1cc(O)c2nc[nH]c(=O)c2c1` [Example 93, 8-Hydroxy-6-isonicotinoylquinazolin-4(3H)-one], for which the IC50 under setting [1] stood at 0.16 µM.

As to `O=c1[nH]cnc2c(O)cc(-c3cncnc3)cc12` [Example 153, 8-Hydroxy-6-(pyrimidin-5-yl)quinazolin-4(3H)-one 2,2,2-trifluoroacetate], the IC50 under setting [1] was 0.19 µM.

Consider `Cc1ccc(C(=O)c2cc(O)c3nc[nH]c(=O)c3c2)cc1` [Example 66, 8-Hydroxy-6-(4-methylbenzoyl)quinazolin-4(3H)-one], for which, under setting [1], the IC50 was 0.1 µM.

`O=c1[nH]cnc2c(O)cc(-c3ccc(-n4cccn4)cc3)cc12` [Example 141, 8-Hydroxy-6-(4-pyrazol-1-yl-phenyl)-3H-quinazolin-4-one] had an IC50 (IC50, COMT-fluorescence assay) of 0.01 µM.

On to `CN(C)c1ccc(-c2cc(O)c3nc[nH]c(=O)c3c2)cc1` [Example 147, 6-(4-Dimethylamino-phenyl)-8-hydroxy-3H-quinazolin-4-one], for which the IC50 under setting [1] stood at 0.02 µM.

For the compound `O=c1[nH]cnc2c(O)cc(-c3ccc4c(c3)CCNC4)cc12` [Example 171, 8-Hydroxy-6-(1,2,3,4-tetrahydroisoquinolin-6-yl)quinazolin-4(3H)-one], the IC50 under setting [1] came out at 0.08 µM.

Consider `O=c1[nH]cnc2c(O)cc(-c3cccc(N4CCOCC4)n3)cc12` [Example 62, 8-Hydroxy-6-(6-morpholinopyridin-2-yl)quinazolin-4(3H)-one], for which the IC50 under setting [1] was 0.01 µM.

In the case of `Cc1cc(-c2c(-c3ccc(F)cc3)cc(O)c3nc[nH]c(=O)c23)ccn1` [Example 58, 6-(4-Fluorophenyl)-8-hydroxy-5-(2-methylpyridin-4-yl)quinazolin-4(3H)-one], the IC50 under setting [1] came out at 0.01 µM.

For `O=C(NCC(F)(F)F)c1cc(O)c2nc[nH]c(=O)c2c1` [Example 5, 8-Hydroxy-4-oxo-N-(2,2,2-trifluoroethyl)-3,4-dihydroquinazoline-6-carboxamide], under setting [1], the 50% inhibitory concentration (IC50) turned out to be 0.66 µM.

For `O=c1[nH]cnc2c(O)cc(-c3ccccc3CO)c(Cl)c12` [Example 255, 5-Chloro-8-hydroxy-6-(2-hydroxymethyl-phenyl)-3H-quinazolin-4-one], under setting [1], the IC50 is 0.12 µM.

Take `CC(C)Oc1cccc(-c2cc(O)c3nc[nH]c(=O)c3c2)c1` [Example 24, 8-Hydroxy-6-(3-isopropoxyphenyl)quinazolin-4(3H)-one]: inhibition (IC50, COMT-fluorescence assay) was half-maximal at 0.01 µM (IC50).

For `Cc1cscc1-c1cc(O)c2nc[nH]c(=O)c2c1` [Example 164, 8-Hydroxy-6-(4-methylthiophen-3-yl)quinazolin-4(3H)-one], under setting [1], the IC50 is 0.02 µM.

Regarding `COCCn1cc(-c2cc(O)c3nc[nH]c(=O)c3c2)cn1` [Example 47, 8-Hydroxy-6-(1-(2-methoxyethyl)-1H-pyrazol-4-yl)quinazolin-4(3H)-one], under setting [1], the 50% inhibitory concentration (IC50) is 0.06 µM.

Regarding `O=C(c1cccnc1)c1cc(O)c2nc[nH]c(=O)c2c1` [Example 74, 8-Hydroxy-6-nicotinoylquinazolin-4(3H)-one], the 50% inhibitory concentration (IC50) under setting [1] was determined as 0.25 µM.

On to `CN(C)c1cccc(-c2cc(O)c3nc[nH]c(=O)c3c2)n1` [Example 183, 6-(6-(Dimethylamino)pyridin-2-yl)-8-hydroxyquinazolin-4(3H)-one], for which, under setting [1], the IC50 is 0.07 µM.

As for `COC(=O)c1cc(O)c2nc[nH]c(=O)c2c1` [Example 2, Methyl 8-hydroxy-4-oxo-3,4-dihydroquinazoline-6-carboxylate], the IC50 under setting [1] came to 0.03 µM.

As to `O=c1[nH]cnc2c(O)cc(-c3ccc4c(c3)OCC4)cc12` [Example 25, 6-(2,3-Dihydrobenzofuran-6-yl)-8-hydroxyquinazolin-4(3H)-one], the IC50 (IC50, COMT-fluorescence assay) is 0.02 µM.

`O=c1[nH]cnc2c(O)cc(-c3cc(F)c(F)c(F)c3)cc12` [Example 28, 8-Hydroxy-6-(3,4,5-trifluorophenyl)quinazolin-4(3H)-one]: 0.04 µM corresponded to half-maximal inhibition (IC50, COMT-fluorescence assay) (IC50).

Turning to `Cc1cc(-c2cc(O)c3nc[nH]c(=O)c3c2)c(C)s1` [Example 165, 6-(2,5-Dimethylthiophen-3-yl)-8-hydroxyquinazolin-4(3H)-one], under setting [1], the IC50 is 0.03 µM.

Where the note is “IC50, COMT-fluorescence assay”, `CN(C)Cc1ccccc1-c1cc(O)c2nc[nH]c(=O)c2c1` [Example 155, 6-(2-((Dimethylamino)methyl)phenyl)-8-hydroxyquinazolin-4(3H)-one] yielded an IC50 of 1.38 µM.

Regarding `O=C(NCC(F)(F)C(F)(F)F)c1cc(O)c2nc[nH]c(=O)c2c1` [Example 4, 8-Hydroxy-4-oxo-N-(2,2,3,3,3-pentafluoropropyl)-3,4-dihydroquinazoline-6-carboxamide], the IC50 under setting [1] was 0.17 µM.

As for `CCc1ccccc1-c1cc(O)c2nc[nH]c(=O)c2c1` [Example 217, 6-(2-Ethylphenyl)-8-hydroxyquinazolin-4(3H)-one], the IC50 under setting [1] is 0.05 µM.

With `CC(C)N1CCc2c(cccc2-c2cc(O)c3nc[nH]c(=O)c3c2)C1` [Example 108, 8-Hydroxy-6-(2-isopropyl-1,2,3,4-tetrahydroisoquinolin-5-yl)quinazolin-4(3H)-one 2,2,2-trifluoroacetate], the IC50 under setting [1] stood at 0.08 µM.

As to `COCc1c(C(=O)N2CCN(C)CC2)cccc1-c1cc(O)c2nc[nH]c(=O)c2c1` [Example 235, 8-Hydroxy-6-[2-methoxymethyl-3-(4-methyl-piperazine-1-carbonyl)-phenyl]-3H-quinazolin-4-one], the IC50 under setting [1] was 0.03 µM.
